From patent publication US5312622A, “Acaricidal compositions and process for preparing same” (Richter Gedeon Vegyeszeti Gyar Rt., priority 1992, dated 1994)

Tests used:
Apis mellifera = conditions: bee; comparison value, no test described; cited from earlier work
Varroa jacobsoni = test: Treatment of Varroa jacobsoni-infected bee families in hives, number of perished mites (Example 38); assay type: in vivo, Varroa jacobsoni mites on Apis mellifera
Procedure: Three families of bees, being present in good condition on nine frames, were infected with `Varroa jacobsoni` to a medium extent, then treated three times, on every third day with the cell-free fermentation broth prepared as described in Example 8 a). Each time, 60 ml of the cell-free fermentation broth prepared as described in Example 8 a) was evenly sprayed by using an airpump spraying device on the honeycomb surfaces and the bees swarming on such surfaces. In addition, each bee family was exposed to the effect of a smoking strip containing 30 mg of amitrase active agent (ANTIVAR for veterinary use) on the third day after the last treatment.
Three other bee families used as control were treated only with ANTIVAR (30 mg of amitrase) in the periods of treatments by the fermentation broth prepared in Example 8 a). Then the number of perished mites and bees inside the hive was counted and registered. Also, the general condition and behavior of the families and the queen-bee were observed.
A tray made of aluminum and provided with a 5 mm high folded rim was placed on the floor-plate of the bee-hives. In case of necessity, the tray could be removed or replaced through an appropriately shaped opening made in the plane of the floor-plate, without the need to open the bee-hive itself.
Under the term of "inhabited strip of the honeycomb" we mean the area stretching between two adjacent sections of the honeycomb was meant where at least 70 to 80% of opposite surfaces of the honeycomb were covered by bees.
By each treatment, 60 ml of cell-free undiluted fermentation broth, prepared as described in Example 8a) and kept at room temperature, were sprayed by using a manually operated air-jet device onto the entire surface of nine frames holding three families of bees (i.e. onto a surface of 27 216 cm^2 per family). The bees covered the honeycomb surface quite evenly during the spraying. The smoking strip containing the amitrase active agent (ANTIVAR) used as control was bent in a "V"-form and placed onto the aluminum tray, then lit and pushed inside the bee-hive. The exit opening was kept closed for one hour.
a) The number of perished mites was registered in the 24th, 48th and 72nd hour after treatments.
Number of perished Varroa jacobsoni mites each per bee family after treatments carried out every 3rd day, 3 times altogether by using the cell-free fermentation broth prepared as described in Example 8a) followed by a treatment with amitrase
Number of perished "Varroa jacobsoni" mites each per bee family after treatment in every third day, 4 times altogether by using 30 mg of amitrase per treatment (control)

Compound: Cc1ccc(N=CN(C)C=Nc2ccc(C)cc2C)c(C)c1 [amitrase]
- LD50 (Apis mellifera): 12 microgram/bee
- effect (Varroa jacobsoni; amitrase-treating, as shown in example 38): < 100%
- Number of perished mites (Varroa jacobsoni; control group, 4th amitrase treatment (30 mg), 24 h after treatment, bee family No. 1): 57
- Number of perished mites (Varroa jacobsoni; control group, 4th amitrase treatment (30 mg), 24 h after treatment, bee family No. 2): 55
- Number of perished mites (Varroa jacobsoni; control group, 4th amitrase treatment (30 mg), 24 h after treatment, bee family No. 3): 32
- Number of perished mites (Varroa jacobsoni; control group, 4th amitrase treatment (30 mg), 48 h after treatment, bee family No. 1): 4
- Number of perished mites (Varroa jacobsoni; control group, 4th amitrase treatment (30 mg), 48 h after treatment, bee family No. 2): 0
- Number of perished mites (Varroa jacobsoni; control group, 4th amitrase treatment (30 mg), 48 h after treatment, bee family No. 3): 4
- Number of perished mites (Varroa jacobsoni; control group, 4th amitrase treatment (30 mg), 72 h after treatment, bee family No. 1): 1
- Number of perished mites (Varroa jacobsoni; control group, 4th amitrase treatment (30 mg), 72 h after treatment, bee family No. 2): 0
- Number of perished mites (Varroa jacobsoni; control group, 4th amitrase treatment (30 mg), 72 h after treatment, bee family No. 3): 1
- Number of perished mites, Total (Varroa jacobsoni; control group, 4th amitrase treatment (30 mg), total, bee family No. 1): 62
- Number of perished mites, Total (Varroa jacobsoni; control group, 4th amitrase treatment (30 mg), total, bee family No. 2): 55
- Number of perished mites, Total (Varroa jacobsoni; control group, 4th amitrase treatment (30 mg), total, bee family No. 3): 37
- Number of perished mites (Varroa jacobsoni; treatment 1, 24 h after treatment, bee family No. 1): 164
- Number of perished mites (Varroa jacobsoni; treatment 1, 24 h after treatment, bee family No. 2): 241
- Number of perished mites (Varroa jacobsoni; treatment 1, 24 h after treatment, bee family No. 3): 190
- Number of perished mites (Varroa jacobsoni; treatment 1, 48 h after treatment, bee family No. 1): 3
- Number of perished mites (Varroa jacobsoni; treatment 1, 48 h after treatment, bee family No. 2): 12
- Number of perished mites (Varroa jacobsoni; treatment 1, 48 h after treatment, bee family No. 3): 3
- Number of perished mites (Varroa jacobsoni; treatment 1, 72 h after treatment, bee family No. 1): 0
- Number of perished mites (Varroa jacobsoni; treatment 1, 72 h after treatment, bee family No. 2): 1
- Number of perished mites (Varroa jacobsoni; treatment 1, 72 h after treatment, bee family No. 3): 0
- Number of perished mites, Total (Varroa jacobsoni; treatment 1, total, bee family No. 1): 167
- Number of perished mites, Total (Varroa jacobsoni; treatment 1, total, bee family No. 2): 254
- Number of perished mites, Total (Varroa jacobsoni; treatment 1, total, bee family No. 3): 193
- Number of perished mites (Varroa jacobsoni; treatment 2, 24 h after treatment, bee family No. 1): 68
- Number of perished mites (Varroa jacobsoni; treatment 2, 24 h after treatment, bee family No. 2): 87
- Number of perished mites (Varroa jacobsoni; treatment 2, 24 h after treatment, bee family No. 3): 37
- Number of perished mites (Varroa jacobsoni; treatment 2, 48 h after treatment, bee family No. 1): 0
- Number of perished mites (Varroa jacobsoni; treatment 2, 48 h after treatment, bee family No. 2): 3
- Number of perished mites (Varroa jacobsoni; treatment 2, 48 h after treatment, bee family No. 3): 1
- Number of perished mites (Varroa jacobsoni; treatment 2, 72 h after treatment, bee family No. 1): 0
- Number of perished mites (Varroa jacobsoni; treatment 2, 72 h after treatment, bee family No. 2): 1
- Number of perished mites (Varroa jacobsoni; treatment 2, 72 h after treatment, bee family No. 3): 0
- Number of perished mites, Total (Varroa jacobsoni; treatment 2, total, bee family No. 1): 68
- Number of perished mites, Total (Varroa jacobsoni; treatment 2, total, bee family No. 2): 91
- Number of perished mites, Total (Varroa jacobsoni; treatment 2, total, bee family No. 3): 38
- Number of perished mites (Varroa jacobsoni; treatment 3, 24 h after treatment, bee family No. 1): 21
- Number of perished mites (Varroa jacobsoni; treatment 3, 24 h after treatment, bee family No. 2): 35
- Number of perished mites (Varroa jacobsoni; treatment 3, 24 h after treatment, bee family No. 3): 24
- Number of perished mites (Varroa jacobsoni; treatment 3, 48 h after treatment, bee family No. 1): 0
- Number of perished mites (Varroa jacobsoni; treatment 3, 48 h after treatment, bee family No. 2): 2
- Number of perished mites (Varroa jacobsoni; treatment 3, 48 h after treatment, bee family No. 3): 1
- Number of perished mites (Varroa jacobsoni; treatment 3, 72 h after treatment, bee family No. 1): 0
- Number of perished mites (Varroa jacobsoni; treatment 3, 72 h after treatment, bee family No. 2): 0
- Number of perished mites (Varroa jacobsoni; treatment 3, 72 h after treatment, bee family No. 3): 2
- Number of perished mites, Total (Varroa jacobsoni; treatment 3, total, bee family No. 1): 21
- Number of perished mites, Total (Varroa jacobsoni; treatment 3, total, bee family No. 2): 37
- Number of perished mites, Total (Varroa jacobsoni; treatment 3, total, bee family No. 3): 27
- Number of perished mites (Varroa jacobsoni; treatment 4: amitrase (30 mg) after 3 treatments with Example 8a) broth, 24 h, bee family No. 1): 225
- Number of perished mites (Varroa jacobsoni; treatment 4: amitrase (30 mg) after 3 treatments with Example 8a) broth, 24 h, bee family No. 2): 134
- Number of perished mites (Varroa jacobsoni; treatment 4: amitrase (30 mg) after 3 treatments with Example 8a) broth, 24 h, bee family No. 3): 94
- Number of perished mites (Varroa jacobsoni; treatment 4: amitrase (30 mg) after 3 treatments with Example 8a) broth, 48 h, bee family No. 1): 24
- Number of perished mites (Varroa jacobsoni; treatment 4: amitrase (30 mg) after 3 treatments with Example 8a) broth, 48 h, bee family No. 2): 4
- Number of perished mites (Varroa jacobsoni; treatment 4: amitrase (30 mg) after 3 treatments with Example 8a) broth, 48 h, bee family No. 3): 11
- Number of perished mites (Varroa jacobsoni; treatment 4: amitrase (30 mg) after 3 treatments with Example 8a) broth, 72 h, bee family No. 1): 0
- Number of perished mites (Varroa jacobsoni; treatment 4: amitrase (30 mg) after 3 treatments with Example 8a) broth, 72 h, bee family No. 2): 1
- Number of perished mites (Varroa jacobsoni; treatment 4: amitrase (30 mg) after 3 treatments with Example 8a) broth, 72 h, bee family No. 3): 0
- Number of perished mites, Total (Varroa jacobsoni; treatment 4: amitrase (30 mg) after 3 treatments with Example 8a) broth, total, bee family No. 1): 249
- Number of perished mites, Total (Varroa jacobsoni; treatment 4: amitrase (30 mg) after 3 treatments with Example 8a) broth, total, bee family No. 2): 139
- Number of perished mites, Total (Varroa jacobsoni; treatment 4: amitrase (30 mg) after 3 treatments with Example 8a) broth, total, bee family No. 3): 105
